Experimental data taken from article PMC6213970, “Identification of Enolase as the Target of 2-Aminothiazoles in Mycobacterium tuberculosis” (Frontiers in Microbiology, 2018).

Target: T1, human α-enolase (Homo sapiens, UniProt P06733)
T1 construct: gene ENO1; commercial enzyme (Sigma)
Experiment: pyruvate kinase-luciferase coupled assay (luminescence)
Assay type: biochemical
Conditions: 100 μM compound; 2-PG 0.2 mM (figure legend) or 0.5 mM (methods); 1 mM ADP, 10 mM MgSO4, 50 mM HEPES pH 7.0, 37°C, 1% DMSO

T1 sequence (P06733 2-434): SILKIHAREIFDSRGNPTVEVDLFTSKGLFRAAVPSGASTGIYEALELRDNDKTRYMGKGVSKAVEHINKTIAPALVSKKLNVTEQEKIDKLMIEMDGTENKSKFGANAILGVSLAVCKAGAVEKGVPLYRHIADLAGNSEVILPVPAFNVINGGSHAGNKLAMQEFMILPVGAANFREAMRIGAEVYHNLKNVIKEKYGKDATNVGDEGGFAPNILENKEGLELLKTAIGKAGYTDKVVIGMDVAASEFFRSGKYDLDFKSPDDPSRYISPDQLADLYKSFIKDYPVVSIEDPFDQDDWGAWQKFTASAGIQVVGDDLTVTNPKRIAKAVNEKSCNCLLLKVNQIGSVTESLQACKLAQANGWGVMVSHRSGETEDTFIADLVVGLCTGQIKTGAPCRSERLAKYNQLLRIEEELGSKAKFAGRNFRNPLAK

For IDR-0106963, the “% inhibition at 100 μM” value was > 90%.
